Data from PMC8424689 (ACS infectious diseases, 2021).

Target: SARS-CoV-2 main protease (M^pro) (Severe acute respiratory syndrome coronavirus 2, UniProt P0DTD1)

Substance	Fold change = (kcat/KM) nsp8/9 analog /(kcat/KM) nsp8/9	Km [µM]	kcat [S^−1]	kcat/KM (catalytic efficiency)	fold difference in kcat/KM, nsp4/5 versus nsp8/9 [fold]
RVVKLQ/ANELMP [nsp8/9 N1′A]	2.9	22 ± 3	0.022 ± 0.001	1.0 ± 0.1 × 10^3 M^−1 s^−1	
RVVKLQ/NAELMP [nsp8/9 N2′A]	2.1	46 ± 5	0.034 ± 0.002	7.5 ±0.8 × 10^2 M^−1 s^−1	
RVVKLQ/NDELMP [nsp8/9 N2′D]	0.4	19 ± 1	0.0029 ± 0.0001	1.6 ± 1.2 × 10^2 M^−1 s^−1	
RVVKLQ/NNELMP [nsp8/9]	1.0	36 ± 6	0.013 ± 0.001	3.6 ± 0.7 × 10^2 M^−1 s^−1	
TSAVLQ/SGFRKM [nsp4/5]		41 ± 9	0.52 ± 0.07	1.3 ± 0.3 × 10^4 M^−1 s^−1	36
